Experiment [1] has as its target Mitogen-activated protein kinase kinase kinase 20 (Homo sapiens, UniProt Q9NYL2). The experiment in a line: Binding affinity to wild-type human partial length ZAK (M1 to L331 residues) expressed in bacterial expression system assessed as residual binding level at 100 nM by Kinomescan method relative to control.
Experiment [2] has as its target T1, Dual specificity mitogen-activated protein kinase kinase 7 (Homo sapiens) (UniProt O14733).
T1 sequence (whole entry): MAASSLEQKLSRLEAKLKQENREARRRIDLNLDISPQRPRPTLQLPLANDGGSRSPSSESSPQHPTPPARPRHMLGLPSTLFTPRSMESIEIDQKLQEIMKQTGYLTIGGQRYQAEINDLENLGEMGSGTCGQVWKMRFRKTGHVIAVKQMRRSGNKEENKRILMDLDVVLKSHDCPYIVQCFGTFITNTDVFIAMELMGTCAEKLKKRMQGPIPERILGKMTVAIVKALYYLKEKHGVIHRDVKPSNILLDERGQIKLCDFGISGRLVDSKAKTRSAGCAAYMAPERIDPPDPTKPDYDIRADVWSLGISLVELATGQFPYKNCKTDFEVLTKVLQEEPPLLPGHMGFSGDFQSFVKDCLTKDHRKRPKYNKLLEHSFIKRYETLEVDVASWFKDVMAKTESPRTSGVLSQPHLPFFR
Briefly: Binding affinity to wild-type human full length MKK7 (M1 to R419 residues) expressed in mammalian expression system assessed as residual binding level at 100 nM by Kinomescan method relative to control.

Experiment [3] deals with Mitogen-activated protein kinase kinase kinase kinase 5 (Homo sapiens, UniProt Q9Y4K4). The experiment in a line: Binding affinity to wild-type human partial length MAP4K5 (M1 to P297 residues) expressed in bacterial expression system assessed as residual binding level at 100 nM by Kinomescan method relative to control.
Sequence of Mitogen-activated protein kinase kinase kinase kinase 5 (Q9Y4K4 whole entry, looked up, the tested form may be a part): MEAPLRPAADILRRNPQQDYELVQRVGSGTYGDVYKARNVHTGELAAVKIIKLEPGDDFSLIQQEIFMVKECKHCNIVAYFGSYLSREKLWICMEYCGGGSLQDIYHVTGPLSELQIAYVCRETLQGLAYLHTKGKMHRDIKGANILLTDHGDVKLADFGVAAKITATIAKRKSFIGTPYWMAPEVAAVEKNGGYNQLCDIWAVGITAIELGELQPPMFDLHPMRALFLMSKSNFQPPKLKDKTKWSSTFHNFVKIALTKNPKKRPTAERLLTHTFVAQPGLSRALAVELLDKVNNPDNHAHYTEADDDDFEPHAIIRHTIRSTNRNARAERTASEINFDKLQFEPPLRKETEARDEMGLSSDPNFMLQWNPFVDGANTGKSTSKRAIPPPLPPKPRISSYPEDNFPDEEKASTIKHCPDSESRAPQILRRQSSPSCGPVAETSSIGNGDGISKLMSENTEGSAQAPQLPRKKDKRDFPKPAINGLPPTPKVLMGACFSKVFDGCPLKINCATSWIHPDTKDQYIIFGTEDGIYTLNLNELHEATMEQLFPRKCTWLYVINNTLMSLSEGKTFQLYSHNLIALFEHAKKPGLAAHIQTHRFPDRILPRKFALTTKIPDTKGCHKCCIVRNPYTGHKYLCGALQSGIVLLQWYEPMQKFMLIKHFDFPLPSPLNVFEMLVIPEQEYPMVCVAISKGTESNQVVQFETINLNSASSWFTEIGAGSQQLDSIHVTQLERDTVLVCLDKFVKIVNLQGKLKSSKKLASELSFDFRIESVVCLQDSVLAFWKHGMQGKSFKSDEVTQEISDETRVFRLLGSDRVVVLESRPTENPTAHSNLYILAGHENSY

For 42 molecules, Activity results are on record in ChEMBL document CHEMBL4811244, “Design and synthesis of 1H-pyrazolo[3,4-b]pyridines targeting mitogen-activated protein kinase kinase 4 (MKK4) - A promising target for liver regeneration” (Eur J Med Chem, 2021).

Sequence of Mitogen-activated protein kinase kinase kinase 20 (Q9NYL2 2-800 limits assumed): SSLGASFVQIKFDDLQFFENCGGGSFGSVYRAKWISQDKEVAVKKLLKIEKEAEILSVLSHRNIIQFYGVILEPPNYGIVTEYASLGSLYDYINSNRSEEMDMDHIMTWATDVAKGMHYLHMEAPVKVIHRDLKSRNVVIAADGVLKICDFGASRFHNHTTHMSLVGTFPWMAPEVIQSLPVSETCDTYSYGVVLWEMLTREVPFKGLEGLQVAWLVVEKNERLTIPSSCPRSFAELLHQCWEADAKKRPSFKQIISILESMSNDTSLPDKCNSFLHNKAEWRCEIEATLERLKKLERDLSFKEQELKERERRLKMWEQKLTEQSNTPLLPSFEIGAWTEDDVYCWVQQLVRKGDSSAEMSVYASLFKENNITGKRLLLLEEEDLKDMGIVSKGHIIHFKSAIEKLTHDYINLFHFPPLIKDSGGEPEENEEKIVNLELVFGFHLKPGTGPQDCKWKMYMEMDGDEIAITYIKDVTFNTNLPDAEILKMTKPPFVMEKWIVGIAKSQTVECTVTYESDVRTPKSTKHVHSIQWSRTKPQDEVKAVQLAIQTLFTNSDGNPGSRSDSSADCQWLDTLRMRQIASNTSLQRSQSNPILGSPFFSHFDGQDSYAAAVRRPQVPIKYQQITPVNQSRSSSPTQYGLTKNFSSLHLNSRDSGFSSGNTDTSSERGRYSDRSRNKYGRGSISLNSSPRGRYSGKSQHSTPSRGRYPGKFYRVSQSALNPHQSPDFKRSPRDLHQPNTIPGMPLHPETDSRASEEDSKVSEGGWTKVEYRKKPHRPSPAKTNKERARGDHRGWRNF

In the case of `CCCS(=O)(=O)Nc1ccc(F)c(C(=O)c2n[nH]c3ncc(-c4ccccc4N)cc23)c1F`, the Activity in experiment [1] was 40%; in experiment [2] it was 95%; in experiment [3] it was 73%.

Take `CCCS(=O)(=O)Nc1ccc(F)c(C(=O)c2n[nH]c3ncc(-c4ccc(OC)cc4Cl)cc23)c1F`: the Activity in experiment [1] stood at 74%; in experiment [2], 100%; in experiment [3] it was 53%.

For the molecule `CCCS(=O)(=O)Nc1ccc(F)c(C(=O)c2n[nH]c3ncc(-c4ccc(S(C)(=O)=O)cc4)cc23)c1F`, the Activity in experiment [1] was found to be 21%; in experiment [2] it was 100%; in experiment [3], 14%.

As for `CCCS(=O)(=O)Nc1ccc(F)c(C(=O)c2n[nH]c3ncc(-c4ccccc4C)cc23)c1F`, the Activity in experiment [1] is 41%; in experiment [2] it was 100%; in experiment [3], 67%.

With `CCCS(=O)(=O)Nc1ccc(F)c(C(=O)c2n[nH]c3ncc(-c4ccc(-c5nnn[nH]5)cc4)cc23)c1F`, the Activity was found to be 20% in experiment [1], 64% in experiment [2] and 81% in experiment [3].

With `CCCS(=O)(=O)Nc1ccc(F)c(C(=O)c2n[nH]c3ncc(-c4ccc(C(=O)O)cc4)cc23)c1F`, the Activity in experiment [1] came out at 7.5%; in experiment [2], 27%; in experiment [3], 75%.

For the molecule `CCCS(=O)(=O)Nc1ccc(F)c(C(=O)c2n[nH]c3ncc(-c4ccc(S(=O)(=O)NC)cc4)cc23)c1F`, the Activity in experiment [1] was 33%; in experiment [2] it was 100%; in experiment [3], 17%.

On to `CCCS(=O)(=O)Nc1ccc(F)c(C(=O)c2n[nH]c3ncc(-c4ccccc4OC)cc23)c1F`, for which the figures for the Activity in experiment [1], in experiment [2] and in experiment [3] were 36%, 100% and 34%, respectively.

With `CCCS(=O)(=O)Nc1ccc(F)c(C(=O)c2n[nH]c3ncc(-c4ccc(F)cc4C)cc23)c1F`, the Activity in experiment [1] was 65%; in experiment [2], 100%; in experiment [3], 55%.

On to `CCCS(=O)(=O)Nc1ccc(F)c(C(=O)c2n[nH]c3ncc(-c4cccc(C(F)(F)F)c4)cc23)c1F`, for which the Activity in experiment [1] turned out to be 44%; in experiment [2], 100%; in experiment [3], 98%.

For `CCCS(=O)(=O)Nc1ccc(F)c(C(=O)c2n[nH]c3ncc(-c4ccc(C(C)(C)C)cc4)cc23)c1F`, the results for the Activity in experiment [1], in experiment [2] and in experiment [3] were 77%, 100% and 97%, respectively.

As for `CCCS(=O)(=O)Nc1ccc(F)c(C(=O)c2n[nH]c3ncc(-c4ccc(S(N)(=O)=O)cc4F)cc23)c1F`, the Activity in experiment [1] stood at 100%; in experiment [2] it was 100%; in experiment [3], 77%.

On to `CCCS(=O)(=O)Nc1ccc(F)c(C(=O)c2n[nH]c3ncc(-c4ccc(C(N)=O)cc4)cc23)c1F`, for which the Activity in experiment [1] came out at 8.1%; in experiment [2], 99%; in experiment [3] it was 10%.

As for `CCCS(=O)(=O)Nc1ccc(F)c(C(=O)c2n[nH]c3ncc(-c4cccc([N+](=O)[O-])c4)cc23)c1F`, the figures for the Activity in experiment [1], in experiment [2] and in experiment [3] were 52%, 95% and 93%, respectively.

In the case of `CCCS(=O)(=O)Nc1ccc(F)c(C(=O)c2n[nH]c3ncc(-c4ccc(Cl)c(C(F)(F)F)c4)cc23)c1F`, the Activity in experiment [1] amounted to 20%; in experiment [2], 100%; in experiment [3], 16%.

`CCCS(=O)(=O)Nc1ccc(F)c(C(=O)c2n[nH]c3ncc(-c4ccc(C)cc4)cc23)c1F`: the Activity in experiment [1] was 5.9%; in experiment [2], 100%; in experiment [3], 25%.

Turning to `CCCS(=O)(=O)Nc1ccc(F)c(C(=O)c2n[nH]c3ncc(-c4ccc(C(C)C)cc4)cc23)c1F`, the values for the Activity in experiment [1], in experiment [2] and in experiment [3] were 92%, 98% and 89%, respectively.

For `CCCS(=O)(=O)Nc1ccc(F)c(C(=O)c2n[nH]c3ncc(-c4ccc(C)c(C)c4)cc23)c1F`, the Activity was found to be 24% in experiment [1], 100% in experiment [2] and 20% in experiment [3].

Turning to `CCCS(=O)(=O)Nc1ccc(F)c(C(=O)c2n[nH]c3ncc(-c4ccc(N)cc4)cc23)c1F`, the Activity was found to be 2.7% in experiment [1], 93% in experiment [2] and 1.3% in experiment [3].

Consider `CCCCS(=O)(=O)Nc1ccc(F)c(C(=O)c2n[nH]c3ncc(-c4ccc(S(N)(=O)=O)cc4)cc23)c1F`, for which the Activity in experiment [1], in experiment [2] and in experiment [3] was 100% throughout.

In the case of `CCCS(=O)(=O)Nc1ccc(F)c(C(=O)c2n[nH]c3ncc(-c4ccc(O)cc4)cc23)c1F`, the Activity amounted to 0% in experiment [1], 87% in experiment [2] and 9.4% in experiment [3].

For the molecule `CCCS(=O)(=O)Nc1ccc(F)c(C(=O)c2n[nH]c3ncc(-c4cccc(O)c4)cc23)c1F`, the Activity in experiment [1] was determined as 0.95%; in experiment [2], 100%; in experiment [3] it was 8%.

Consider `CCCS(=O)(=O)Nc1ccc(F)c(C(=O)c2n[nH]c3ncc(-c4ccc(N(C)C)cc4)cc23)c1F`, for which the Activity in experiment [1] is 2.2%; in experiment [2], 100%; in experiment [3], 31%.

Consider `CCCS(=O)(=O)Nc1ccc(F)c(C(=O)c2n[nH]c3ncc(-c4ccccc4Cl)cc23)c1F`, for which the Activity in experiment [1] amounted to 64%; in experiment [2], 100%; in experiment [3], 96%.

Consider `CCCS(=O)(=O)Nc1ccc(F)c(C(=O)c2n[nH]c3ncc(-c4cccc(Cl)c4)cc23)c1F`, for which the values for the Activity in experiment [1], in experiment [2] and in experiment [3] were 16%, 100% and 69%, respectively.

On to `CCCS(=O)(=O)Nc1ccc(F)c(C(=O)c2n[nH]c3ncc(-c4ccccc4)cc23)c1F`, for which the Activity in experiment [1] turned out to be 1.9%; in experiment [2], 100%; in experiment [3] it was 24%.

Take `CCCS(=O)(=O)Nc1ccc(F)c(C(=O)c2n[nH]c3ncc(-c4ccccc4F)cc23)c1F`: the Activity in experiment [1] worked out at 32%; in experiment [2], 83%; in experiment [3], 59%.

With `CCCS(=O)(=O)Nc1ccc(F)c(C(=O)c2n[nH]c3ncc(-c4cccc(N(C)C)c4)cc23)c1F`, the Activity in experiment [1] was 9.7%; in experiment [2] it was 100%; in experiment [3], 11%.

Turning to `CCCS(=O)(=O)Nc1ccc(F)c(C(=O)c2n[nH]c3ncc(-c4ccc(C(F)(F)F)cc4)cc23)c1F`, the Activity in experiment [1] came out at 75%; in experiment [2], 100%; in experiment [3], 76%.

Regarding `CCCS(=O)(=O)Nc1ccc(F)c(C(=O)c2n[nH]c3ncc(-c4ccc(NS(C)(=O)=O)cc4)cc23)c1F`, the Activity came out at 4.3% in experiment [1], 100% in experiment [2] and 1.1% in experiment [3].

Turning to `CCCS(=O)(=O)Nc1ccc(F)c(C(=O)c2n[nH]c3ncc(-c4ccc(F)cc4)cc23)c1F`, the figures for the Activity in experiment [1], in experiment [2] and in experiment [3] were 4.8%, 100% and 59%, respectively.

With `CCCS(=O)(=O)Nc1ccc(F)c(C(=O)c2n[nH]c3ncc(-c4ccc(S(N)(=O)=O)cc4C)cc23)c1F`, the Activity in experiment [1] amounted to 94%; in experiment [2] it was 100%.

As for `CCCS(=O)(=O)Nc1ccc(F)c(C(=O)c2n[nH]c3ncc(-c4cccc(OC)c4)cc23)c1F`, the Activity is 23% in experiment [1], 100% in experiment [2] and 24% in experiment [3].

As for `CCCS(=O)(=O)Nc1ccc(F)c(C(=O)c2n[nH]c3ncc(-c4ccc(Cl)c(Cl)c4)cc23)c1F`, the Activity in experiment [1] was determined as 85%; in experiment [2] it was 100%; in experiment [3] it was 100%.

As for `CCCS(=O)(=O)Nc1ccc(F)c(C(=O)c2n[nH]c3ncc(-c4ccc(S(=O)(=O)NCC)cc4)cc23)c1F`, the Activity in experiment [1] stood at 32%; in experiment [2], 100%; in experiment [3], 26%.

On to `CCCS(=O)(=O)Nc1ccc(F)c(C(=O)c2n[nH]c3ncc(-c4ccc(Cl)cc4Cl)cc23)c1F`, for which the Activity in experiment [1] came out at 99%; in experiment [2], 96%; in experiment [3] it was 100%.

Regarding `CCCS(=O)(=O)Nc1ccc(F)c(C(=O)c2n[nH]c3ncc(-c4cccc(F)c4)cc23)c1F`, the Activity was 12% in experiment [1], 97% in experiment [2] and 65% in experiment [3].

Take `CCCS(=O)(=O)Nc1ccc(F)c(C(=O)c2n[nH]c3ncc(-c4ccc([N+](=O)[O-])cc4)cc23)c1F`: the results for the Activity in experiment [1], in experiment [2] and in experiment [3] were 23%, 100% and 61%, respectively.

Consider `CCCS(=O)(=O)Nc1ccc(F)c(C(=O)c2n[nH]c3ncc(-c4cccc(N)c4)cc23)c1F`, for which the Activity in experiment [1] is 2.3%; in experiment [2] it was 86%; in experiment [3] it was 3.8%.

As to `CCCS(=O)(=O)Nc1ccc(F)c(C(=O)c2n[nH]c3ncc(-c4ccc(OC)cc4)cc23)c1F`, the Activity stood at 1.9% in experiment [1], 100% in experiment [2] and 28% in experiment [3].

As to `CCCS(=O)(=O)Nc1ccc(F)c(C(=O)c2n[nH]c3ncc(-c4cc(Cl)cc(Cl)c4)cc23)c1F`, the figures for the Activity in experiment [1], in experiment [2] and in experiment [3] were 66%, 100% and 99%, respectively.

Consider `CCCS(=O)(=O)Nc1ccc(F)c(C(=O)c2n[nH]c3ncc(-c4ccc(S(N)(=O)=O)cc4Cl)cc23)c1F`, for which the Activity in experiment [1] and in experiment [2] was 100% each time.
